Common to all, as to format: cell-based, Saccharomyces cerevisiae
For assay [1], the system named is yCM61 (Δpdr1, Δpdr5, Δsnq2, Δerg6). The assay can be described thus: Growth inhibition (sensitivity to cytotoxic products) as measure of permeability, strain yCM61 (Example 6). The text has this: The strain yCM30 is transformed by the fragment prepared as described in Example 5 in 1a. After elimination of the selectable marker, the strain yCM45 (Δpdr1, Δpdr5, ura3, trp1, MAT α) is obtained. The strain yCM45 is transformed by the fragment prepared as described in Example 5 in 1b. After elimination of the selectable marker, the strain yCM51 (Δpdr1, Δpdr5, Δsnq2, ura3, trp1, MAT α) is obtained. The strain yCM51 is transformed by the fragment prepared as described in Example 1 in 1a. After elimination of the selectable marker, the strain yCM61 (Δpdr1, Δpdr5, Δsnq2, Δerg6, ura3, trp1, MAT α) is obtained.
(§1) The permeability of the yeast strains 5247 and yCM61 is determined by measurement of the sensitivity to different cytotoxic products. The different yeasts are inoculated at an optical density of 0.05 to 700 nm in YNB minimum medium correctly supplemented with bases and amino acids in the presence of an increasing concentration of xenobiotics. The cultures are placed at 28° C. and at 200 rpm for 48 hours. The optical density at 700 nm is then measured. The EC50 is determined as the xenobiotic concentration inhibiting the growth of the yeast by half compared with a control without xenobiotic.

Assay [2] deals with 5247 (wt). The assay can be described thus: Growth inhibition (sensitivity to cytotoxic products) as measure of permeability, wild-type strain (Example 6). The protocol: (§2) The strain of yeast used is the strain S. cerevisiae 5247 (Marcireau, 1992) of the ura3, trp1, MAT α genotype. This strain is transformed according to the method described by Gietz (Gietz, 1992).
as §1

Another assay relates to yCM65 (Δpdr1, Δerg4). The assay is described as follows: Growth inhibition (sensitivity to cytotoxic products) as measure of permeability, strain yCM65. To be noted: for EC50: Saccharomyces cerevisiae; for RATIO: EC50 5247 (wt) / EC50 yCM65, 2880 min. The protocol: (§3) The strain 5247 is transformed as described in 3) with the fragments prepared as described in 2a), 2b), 2c). After elimination of the selectable marker, the strains yCM30 (Δpdr1, ura3, trp1, MAT α), yCM63 (Δerg4, ura3, trp1, MAT α) and yCM65 (Δpdr1, Δerg4, ura3, trp1, MAT α) are obtained.
(§4) The permeability of the yeasts obtained in Example 1 is determined by measuring the sensitivity to different cytotoxic products. The different yeasts are inoculated at an optical density of 0.05 to 700 nm in YNB minimum medium correctly supplemented with bases and amino acids in the presence of an increasing concentration of xenobiotics. The cultures are placed at 28° C. and at 200 rpm for 48 hours. The optical density at 700 nm is then measured. The EC50 is then determined as the xenobiotic concentration inhibiting the growth of the yeast by half compared with a control without xenobiotic.

A further assay relates to yCM63 (Δerg4). The assay can be described thus: Growth inhibition (sensitivity to cytotoxic products) as measure of permeability, strain yCM63. The conditions noted are these: for RATIO: EC50 5247 (wt) / EC50 yCM63, 2880 min; for EC50: Saccharomyces cerevisiae, YNB minimum medium, 28° C., 48 hours, OD 700 nm. The protocol:
as §3, §4

A further assay deals with yCM55 (Δerg6). The assay is described as follows: Growth inhibition (sensitivity to cytotoxic products) as measure of permeability, strain yCM55. To be noted: for EC50: Saccharomyces cerevisiae; for RATIO: EC50 5247 (wt) / EC50 yCM55, 2880 min. The protocol: as §4
The strain 5247 is transformed by the fragment prepared as described in 1a. After elimination of the selectable marker, the strain yCM55 (Δerg6,ura3, trp1, MAT α) is obtained.
(§5) This evaluation was carried out according to the procedure described in Example 2.

The test system of assay [3] is 5247 (wt). The assay can be described thus: Growth inhibition (sensitivity to cytotoxic products) as measure of permeability, wild-type strain (Examples 2 and 4). The conditions noted are these: for EC50: Saccharomyces cerevisiae; for RATIO: EC50 relative to wild type 5247, 2880 min. The protocol: as §2, §4, §5
The next assay has as its system yCM30 (Δpdr1). The assay can be described thus: Growth inhibition (sensitivity to cytotoxic products) as measure of permeability, strain yCM30. The conditions noted are these: for EC50: Saccharomyces cerevisiae; for RATIO: EC50 5247 (wt) / EC50 yCM30, 2880 min. The protocol:
as §3, §4, §5

For the next assay, the system named is yCM57 (Δpdr1, Δerg6). The assay can be described thus: Growth inhibition (sensitivity to cytotoxic products) as measure of permeability, strain yCM57. The conditions noted are these: for RATIO: EC50 5247 (wt) / EC50 yCM57, 2880 min. The protocol:
as §4
The strain yCM30 is transformed by the fragment prepared as described in la. After elimination of the selectable marker, the strain yCM57 (Δpdr1, Δerg6, ura3, trp1, MAT α) is obtained.
as §5

Where [4] appears, read: Saccharomyces cerevisiae, Example 6, strain yCM61 (Δpdr1, Δpdr5, Δsnq2, Δerg6), YNB minimum medium, 28° C., 48 hours, OD 700 nm, read-out: EC50.
[5] abbreviates: Saccharomyces cerevisiae, Example 6, strain 5247 (wt), YNB minimum medium, 28° C., 48 hours, OD 700 nm, read-out: EC50.
Setting [6] is: EC50 5247 (wt) / EC50 yCM61, 2880 min.
[7] abbreviates: strain yCM65 (Δpdr1, Δerg4), YNB minimum medium, 28° C., 48 hours, OD 700 nm, read-out: EC50.
The mark [8] stands for this setting: strain yCM55 (Δerg6), YNB minimum medium, 28° C., 48 hours, OD 700 nm, read-out: EC50.
Setting [9] is: strain 5247 (wt), YNB minimum medium, 28° C., 48 hours, OD 700 nm, read-out: EC50.
[10] abbreviates: strain yCM30 (Δpdr1), YNB minimum medium, 28° C., 48 hours, OD 700 nm, read-out: EC50.

Read-outs that look alike come from different tables or passages of the source. Numbered stars: 1 amine (or outer) side, 2 acyl side, 3 side chain; on linkers, the order of the positions; unused ones are H or OH. Bridge positions count the residues as written; N and C are the ends. Square brackets hold non-standard residues; d marks the D form. Peptide text beside a SMILES is read from it. I, II: the chains in the order shown. Actinocin(9to1) = Cc1c2oc3c(C)ccc(C(=O)[*:1])c3nc-2c(C(=O)[*:2])c(N)c1=O; NMeV = CN[C@H](C(=O)O)C(C)C; Sar = CNCC(=O)O

For `CC[C@H](C)C(=O)O[C@H]1C[C@@H](C)C=C2C=C[C@H](C)[C@H](CC[C@@H]3C[C@@H](O)CC(=O)O3)[C@H]21` [Lovastatin], the EC50 amounted to 3.8 µM in assay [1] (setting [4]) and 143 µM in the assay with 5247 (wt) [2] (setting [5]). Besides, the RATIO in assay [1] (s. cerevisiae ycm61, 2880 min) is 37.
Take `CO[C@@H]1[C@@H](OC(N)=O)[C@@H](O)[C@H](Oc2ccc3c(O)c(NC(=O)c4ccc(O)c(CC=C(C)C)c4)c(=O)oc3c2C)OC1(C)C` [Novobiocin]: the RATIO in assay [1] (setting [6]) is recorded as 27. Moreover, the EC50 is 9 µM in assay [1] (setting [4]) and 245 µM with 5247 (wt) [2] (setting [5]).
As to `Cc1c2oc3c(C)ccc(C(=O)N[C@@H]4C(=O)N[C@H](C(C)C)C(=O)N5CCC[C@H]5C(=O)N(C)CC(=O)N(C)[C@@H](C(C)C)C(=O)O[C@@H]4C)c3nc-2c(C(=O)N[C@@H]2C(=O)N[C@H](C(C)C)C(=O)N3CCC[C@H]3C(=O)N(C)CC(=O)N(C)[C@@H](C(C)C)C(=O)O[C@@H]2C)c(N)c1=O` [ACTINOMYCIN D, actinomycin D] (I: T[dV]P[Sar][NMeV] / II: T[dV]P[Sar][NMeV]; ester I:1-I:C, II:1-II:C; linker I:N-II:N via Actinocin(9to1)), the EC50 with yCM65 (Δpdr1, Δerg4) (setting [7]) amounted to 5.8 µM; with yCM63 (Δerg4), 6.4 µM; with yCM55 (Δerg6) (setting [8]), 5.6 µM; in the assay with 5247 (wt) [3] (setting [9]), 23.9 µM; in the assay with yCM30 (Δpdr1) (setting [10]), 12.7 µM. The RATIO in the assay on yCM65 (Δpdr1, Δerg4) (strain yCM65 (Δpdr1, Δerg4)) is 4.1; with yCM63 (Δerg4), 3.7; in the assay with yCM55 (Δerg6) (strain yCM55 (Δerg6)), 4.3; with 5247 (wt) [3] (strain 5247 (wt)), 1; in the assay with yCM30 (Δpdr1) (strain yCM30 (Δpdr1)) it was 1.9; with yCM57 (Δpdr1, Δerg6) (strain yCM57 (Δpdr1, Δerg6)), 31.9. Moreover, in the assay with yCM57 (Δpdr1, Δerg6) (Saccharomyces cerevisiae, strain yCM57 (Δpdr1, Δerg6), YNB minimum medium, 28° C., 48 hours, OD 700 nm, read-out: EC50 (the source's name)), the IC50 amounted to 0.75 µM.
Consider `CC[C@@]1(O)C(=O)OCc2c1cc1n(c2=O)Cc2cc3ccccc3nc2-1` [Camptothecin], for which the RATIO in assay [1] (setting [6]) is listed as more than 100. Further, the EC50 in assay [1] (Saccharomyces cerevisiae, 48 h) was 5.74 µM; with 5247 (wt) [2] (Saccharomyces cerevisiae, 48 h), more than 574 µM.
For the compound `Cc1cc(C)nc(NC(=O)NS(=O)(=O)c2ccccc2C(=O)O)n1` [Sulphomethuron], the RATIO in assay [1] (setting [6]) is reported as more than 50. Moreover, the EC50 in assay [1] (Example 6, strain yCM61 (Δpdr1, Δpdr5, Δsnq2, Δerg6), YNB minimum medium, 28° C., 48 hours, OD 700 nm, read-out: EC50) is less than 0.13 µM; with 5247 (wt) [2] (Example 6, strain 5247 (wt), YNB minimum medium, 28° C., 48 hours, OD 700 nm, read-out: EC50) it was 6.9 µM.
`COc1cccc2c1C(=O)c1c(O)c3c(c(O)c1C2=O)C[C@@](O)(C(=O)CO)C[C@@H]3O[C@H]1C[C@H](N)[C@H](O)[C@H](C)O1` [DOXORUBICIN, doxorubicin]: the EC50 in the assay on yCM65 (Δpdr1, Δerg4) (setting [7]) was determined as 5.15 µM; in the assay with yCM63 (Δerg4), 9.2 µM; with yCM55 (Δerg6) (setting [8]) it was 12 µM; in the assay with 5247 (wt) [3] (setting [9]) it was 40.5 µM; with yCM30 (Δpdr1) (setting [10]), 18.4 µM; with yCM57 (Δpdr1, Δerg6) (Saccharomyces cerevisiae, strain yCM57 (Δpdr1, Δerg6), YNB minimum medium, 28° C., 48 hours, OD 700 nm), 1.7 µM. Further, the RATIO came to 7.8 in the assay with yCM65 (Δpdr1, Δerg4) (strain yCM65 (Δpdr1, Δerg4)); 4.4 in the assay with yCM63 (Δerg4); 3.4 in the assay on yCM55 (Δerg6) (strain yCM55 (Δerg6)); 1 with 5247 (wt) [3] (strain 5247 (wt)); 2.2 in the assay with yCM30 (Δpdr1) (strain yCM30 (Δpdr1)); 23.8 in the assay with yCM57 (Δpdr1, Δerg6) (strain yCM57 (Δpdr1, Δerg6)).
Take `C[C@@H]1C[C@@H]([C@H](O)CC2CC(=O)NC(=O)C2)C(=O)[C@@H](C)C1` [Cycloheximide]: the RATIO in assay [1] (setting [6]) turned out to be 500; in the assay on yCM65 (Δpdr1, Δerg4) (strain yCM65 (Δpdr1, Δerg4)) it was 106; with yCM55 (Δerg6) (strain yCM55 (Δerg6)) it was 23; with 5247 (wt) [3] (strain 5247 (wt)) it was 1; in the assay on yCM30 (Δpdr1) (strain yCM30 (Δpdr1)), 21.2; in the assay on yCM57 (Δpdr1, Δerg6) (strain yCM57 (Δpdr1, Δerg6)), 265. In addition, the EC50 stood at 0.142 µM in assay [1] (Saccharomyces cerevisiae, 48 h); 0.5 µM with yCM65 (Δpdr1, Δerg4) (48 h); 2.3 µM in the assay with yCM55 (Δerg6) (48 h); 53 µM in the assay with 5247 (wt) [3] (48 h); 2.5 µM with yCM30 (Δpdr1) (48 h); 71 µM in the assay with 5247 (wt) [2] (Saccharomyces cerevisiae, 48 h). Further, in the assay on yCM57 (Δpdr1, Δerg6) (Saccharomyces cerevisiae, 48 h, read-out: EC50), the IC50 was determined as 0.2 µM.

One may read the EC50 as the concentration that produces a half-maximal response.
